# In PubChem BioAssay (NCI):
#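 Assay format: 96-well plates, 48-hour exposure. Here, GI50 denotes the concentration required for 50% inhibition of growth. TGI denotes the concentration required for complete inhibition of growth.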
# Legend:
# Assay in all cases: NCI-60 cell line screen, 48 h
# [1] = test system: NCI-H23 lung
# [2] = test system: COLO 205 colon
# [3] = test system: UACC-257 melanoma
# [4] = test system: SK-OV-3 ovarian
# [5] = test system: DU-145 prostate
# [6] = test system: SF-268 CNS
# [7] = test system: UO-31 renal
# [8] = test system: PC-3 prostate
# [9] = test system: SNB-19 CNS
# [10] = test system: HCC-2998 colon
Structure (SMILES),TGI [1] [µM],TGI [2] [µM],TGI [3] [µM],TGI [4] [µM],TGI [5] [µM],TGI [6] [µM],TGI [7] [µM],TGI [8] [µM],TGI [9] [µM],GI50 [1] [µM],GI50 [6] [µM],GI50 [7] [µM],GI50 [8] [µM],TGI [10] [µM],GI50 [2] [µM],GI50 [3] [µM],GI50 [4] [µM],GI50 [5] [µM],GI50 [9] [µM],GI50 [10] [µM]
CN(C)C=Nc1c2c(nc3ccccc13)CCCC2,> 100,> 100,> 100,> 100,> 100,> 100,> 100,> 100,> 100,,,,,,,,,,,
Cc1csc2c(=O)n(COCc3ccccc3)c(=O)[nH]c12,> 100,> 100,> 100,,> 100,> 100,> 100,> 100,> 100,,,,,,,,,,,
Nc1nc(N)c2nc(CNc3ccc(C(=O)NC(CCNC(=O)c4ccccc4C(=O)O)C(=O)O)cc3)cnc2n1 (configuration not stated),> 100,> 100,> 100,> 100,> 100,> 100,> 100,> 100,> 100,0.0324,0.169,0.04,0.00666,,,,,,,
CP(=O)(O)C(N)c1ccccc1 (configuration not stated),> 100,> 100,> 100,> 100,> 100,> 100,> 100,> 100,> 100,,,,,,,,,,,
O=C(CSc1nnc(-c2ccc(N=Cc3ccc(Cl)cc3)cc2)o1)Nc1cccc([N+](=O)[O-])c1,> 100,> 100,> 100,> 100,,> 100,> 100,,> 100,,,,,,,,,,,
O=C1C(=Cc2ccc([N+](=O)[O-])o2)C(=O)N(CCc2ccccc2)S(=O)(=O)N1CCc1ccccc1,31.9,36.9,> 100,> 100,,57.8,> 100,,> 100,,,,,> 100,,,,,,
CCOC(=O)C1=C(O)c2ccc(OC)cc2C(=O)C1=O,> 100,> 100,> 100,> 100,,> 100,> 100,,> 100,,,,,> 100,,,,,,
COC1=CC(c2ccc[nH]2)=N/C1=C\c1[nH]c(C)c(C)c1CCC(=O)OCc1ccccc1,2.55,1.15,2.97,5.16,6.82,2.92,0.459,5.87,14,0.382,0.369,0.209,0.277,,0.257,1.27,1.79,0.446,0.676,
O=C1C(Cl)C(c2ccc([N+](=O)[O-])cc2)N1n1cnc2ccccc2c1=O (configuration not stated),> 100,> 100,> 100,50.3,,97.3,> 100,,> 100,,,,,> 100,,,,,,
O=C1NC(Cc2ccccc2)C(=O)N2CCCC12 (configuration not stated),,> 100,> 100,> 100,,> 100,> 100,,> 100,,,,,> 100,,,,,,
COc1ccccc1[C@@H]1CCC2CC[C@@H](c3ccccc3OC)[N+]21Cc1ccccc1 (some centres not stated),6.63,1.84,14.1,11.7,13.7,17.4,10.6,7.94,16.5,,,,,,,,,,,
N/C(=N/N=C/c1cccc(F)c1)NO,> 100,> 100,> 100,> 100,,68.7,> 100,,> 100,,,,,> 100,,,,,,
O=C1C=CC(=O)[C@H]2C3C=CC(C4C3C3(Cl)C(Cl)=C(Cl)[C@]4(Cl)C3(Cl)Cl)[C@@H]12 (some centres not stated),25.7,19.1,6.23,27.3,21.3,18.4,22.1,16.4,17,,,,,,,,,,,
COc1ccc(N2C(=O)C3C=CC(n4[nH]c(=O)n(Cc5ccccc5)c4=O)CC3C2=O)cc1 (configuration not stated),> 100,> 100,> 100,> 100,,> 100,> 100,,> 100,,,,,> 100,,,,,,
CC(=O)Nc1ccc(C(=O)n2[nH]c(C)c(/C=C3\C(=O)C=Cc4ccccc43)c2=O)cc1,> 100,> 100,> 100,,,> 100,> 100,,> 100,,,,,> 100,,,,,,
Cc1cc(=O)[nH]c(NNC(C#N)c2ccc(N(C)C)cc2)n1 (configuration not stated),> 100,> 100,> 100,> 100,,> 100,> 100,,,,,,,,,,,,,
CCCCc1c2c(nc3c1CCCC3=O)CCCC2,> 100,> 100,,> 100,,> 100,> 100,,> 100,,,,,> 100,,,,,,
COCC1N=C(c2cc(OC)c(OC)c(OC)c2-c2cc3c(cc2[C@@H](C)O)OCO3)O[C@H]1c1ccccc1 (some centres not stated),> 100,> 100,> 100,> 100,,> 100,> 100,,> 100,,,,,> 100,,,,,,

Structure (SMILES),TGI [1] [µM],TGI [2] [µM],TGI [3] [µM],TGI [4] [µM],TGI [5] [µM],TGI [6] [µM],TGI [7] [µM],TGI [8] [µM],TGI [9] [µM],GI50 [1] [µM],GI50 [6] [µM],GI50 [7] [µM],GI50 [8] [µM],TGI [10] [µM],GI50 [2] [µM],GI50 [3] [µM],GI50 [4] [µM],GI50 [5] [µM],GI50 [9] [µM],GI50 [10] [µM]
COc1cc(CC(=O)c2cc3c(cc2-c2ccccc2)OCO3)cc(OC)c1OC,> 100,> 100,> 100,> 100,,> 100,> 100,,> 100,,,,,> 100,,,,,,
CN(C)CCCN=c1c2ccccc2n(C)c2[nH]c(=O)n(C)c(=O)c12,21.7,11.9,13.8,50.3,> 79,> 46.6,27.2,22.4,> 64.4,,,,,,,,,,,
CC(C)OC(=O)c1cccnc1/C=N/O,> 100,> 100,> 100,> 100,,> 100,> 100,,> 100,,,,,> 100,,,,,,
Nc1ccn(CCCC(c2ccccc2)P(=O)(O)O)c(=O)n1 (configuration not stated),> 100,> 100,> 100,> 100,,> 100,> 100,,> 100,,,,,> 100,,,,,,
COC(=O)C1=C(C)NC2=C(C(=O)c3ccccc32)C1c1cn[nH]c1-c1ccccc1 (configuration not stated),> 100,52,> 100,> 100,> 100,> 100,> 100,> 100,> 100,,,,,,,,,,,
O=P(Nc1cccc(Cl)c1)(Oc1ccccc1)N(CCCl)CCCl (configuration not stated),31.8,29.3,27.2,> 100,,31.4,> 100,,,,,,,28.6,,,,,,
C[C@]12CCC(=O)C=C1CC[C@@H]1C2CC[C@@]2(C)C1CC[C@@H]2OC(=O)C12OC1CCC2=O (some centres not stated),33.6,34.4,35.9,> 100,,41.2,30.3,,44.3,,,,,59,,,,,,
O=C(c1cccnc1)N1N=C(c2ccc3c(c2)OCO3)CC1(O)c1cc(F)c(Cl)cc1Cl (configuration not stated),> 100,31.2,51.2,> 100,59.8,49.8,41.3,> 100,> 100,,,,,,,,,,,
CCc1n[nH]c(=O)n1N=C(c1ccccc1)c1ccccc1,> 100,> 100,> 100,,> 100,> 100,> 100,> 100,> 100,,,,,,,,,,,
CN(C)CCNC(=O)c1cccc2[nH]c(-c3ccc(Cl)cc3)nc12,21.5,9.29,20.4,25.1,,38.4,12.1,,31.5,,,,,16.9,,,,,,
COC(=O)CC1NC(=O)C1C(C)(OC)OC (configuration not stated),> 100,> 100,> 100,,,> 100,> 100,,> 100,,,,,> 100,,,,,,
COc1ccc(NC(=O)C2=CC(=O)c3ccc(O)cc3C2=O)c(OC)c1,> 100,> 100,> 100,,,> 100,,,> 100,,,,,> 100,,,,,,
O=C1NC2OC(CO)C(O)C(O)C2O1 (configuration not stated),> 100,> 100,> 100,> 100,,> 100,> 100,,> 100,,,,,> 100,,,,,,
CNC(=O)c1cc(Oc2cccc3nc(NC(=O)Nc4ccc(F)cc4F)ccc23)ccn1,> 50,,,,,> 50,,,,2.4,1.9,,,> 50,,,,,,> 50
NNC(=S)NN/C=C(\C=Nc1ccccc1)[N+](=O)[O-],> 100,> 100,> 100,> 100,,> 100,,,> 100,,,,,> 100,,,,,,
COc1ccc2nc3c([N+](=O)[O-])ccc(NCCCN(C)C)c3c(N)c2c1,3.95,2.29,,3.01,3.05,3.31,3.71,2.73,4.23,,,,,,,,,,,
COc1cc2nc3n(c(=O)c2cc1OC)CCCCC3,> 100,> 100,> 100,> 100,> 100,> 100,> 100,> 100,,,,,,,,,,,,
COc1ccc(/C=C(\C2=NC(=O)CS2)c2nc3ccccc3[nH]2)cc1,> 100,> 100,> 100,60,,> 100,> 100,,> 100,,,,,49.7,,,,,,
